Assay results reported in patent US10851115B2, “Heterocyclic compounds as RSV inhibitors” (Enanta Pharmaceuticals, Inc., priority 2017, dated 2020).

What follows are compounds tested on Human RSV-A (“Long” strain) (assay: RSV in vitro cytoprotection assay in HEp-2 cells (ATPlite readout)). Conditions: human respiratory syncytial virus, 96 h; HEp-2 cells, 4-day incubation, ATPlite; read-out: Human RSV-A (“Long” strain) EC50.
Assay type: cell-based
How it was run: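 HEp-2 cells (8,000/well) given 2-fold compound dilutions in duplicate, then infected with RSV-A Long stock; 4-day incubation. Cell viability read by ATPlite luminescence (ATP), with parallel uninfected plate for cytotoxicity; EC50 from protection against CPE.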

Q: Which EC50 does the source give for `Cc1cnc(N2CC3(CCOCC3)C2)c(C(=O)Nc2ccc(C(=O)N3CCc4cc(C(=O)Nc5c(F)cccc5Cl)oc4-c4cccnc43)cc2)c1` [Example 113] here?
A: The EC50 was over 50 nM.

Q: How did the EC50 turn out when `Cc1cnc(N2CC3(CCOCC3)C2)c(C(=O)Nc2ccc(C(=O)N3CCc4cc(-c5nc6ccccc6[nH]5)oc4-c4cccnc43)cc2)c1` [Example 114] was run?
A: The EC50 was over 50 nM.

Q: With `Cc1cnc(N2CC3(CCOCC3)C2)c(C(=O)Nc2ccc(C(=O)N3CCc4cc(C(=O)Nc5c(F)cccc5F)oc4-c4ncccc43)cc2)c1` [Example 115] as the compound, how does the EC50 read?
A: Its EC50 is 10 to 50 nM.

Q: For `Cc1cnc(N2CC3(CCOCC3)C2)c(C(=O)Nc2ccc(C(=O)N3CCc4cc(C(=O)Nc5c(F)cccc5Cl)oc4-c4ncccc43)cc2)c1` [Example 117], which EC50 is on record?
A: The EC50 was 10 to 50 nM.

Q: How did the EC50 turn out when `Cc1cnc(N2CC3(CCOCC3)C2)c(C(=O)Nc2ccc(C(=O)N3CCc4cc(-c5nc6ccccc6[nH]5)oc4-c4ncccc43)cc2)c1` [Example 118] was run?
A: The EC50 was 10 to 50 nM.

Q: `O=C(Nc1c(F)cccc1F)c1cc2c(o1)-c1ncccc1N(C(=O)c1ccc(NC(=O)c3cc4c(nc3N3CC5(CCOCC5)C3)CCC4)cc1)CC2` [Example 119] was tested. Which EC50 did it give?
A: The EC50 was under 10 nM.

Q: `O=C(Nc1ccc(C(=O)N2CCc3cc(-c4nc5ccccc5[nH]4)oc3-c3ncccc32)cc1)c1cc2c(nc1N1CC3(CCOCC3)C1)CCC2` [Example 120] was tested. Which EC50 did it give?
A: The EC50 was 10 to 50 nM.

Q: How did the EC50 turn out when `Cc1cnc(N2CC3(CCOCC3)C2)c(C(=O)Nc2ccc(C(=O)N3CCc4cc(C(=O)Nc5c(F)cccc5F)oc4-c4ccncc43)cc2)c1` [Example 121] was run?
A: Its EC50 is 10 to 50 nM.

Q: With `Cc1cnc(N2CC3(CCOCC3)C2)c(C(=O)Nc2ccc(C(=O)N3CCc4cc(C(=O)Nc5c(F)cc(F)cc5F)oc4-c4ccncc43)cc2)c1` [Example 122] as the compound, how does the EC50 read?
A: The EC50 was over 50 nM.

Q: `Cc1cnc(N2CC3(CCOCC3)C2)c(C(=O)Nc2ccc(C(=O)N3CCc4cc(C(=O)Nc5c(C)cccc5F)oc4-c4ccncc43)cc2)c1` [Example 123] was tested. Which EC50 did it give?
A: The EC50 was over 50 nM.

Q: `Cc1cnc(N2CC3(CCOCC3)C2)c(C(=O)Nc2ccc(C(=O)N3CCc4cc(-c5nc6ccccc6[nH]5)oc4-c4ccncc43)cc2)c1` [Example 124] was tested. Which EC50 did it give?
A: Its EC50 is over 50 nM.

Q: `Cc1cnc(N2CC3(CCOCC3)C2)c(C(=O)Nc2ccc(C(=O)N3CCc4cc(C(=O)Nc5c(F)cccc5Cl)oc4-c4ccncc43)cc2)c1` [Example 125] was tested. Which EC50 did it give?
A: Its EC50 is 10 to 50 nM.

Q: `Cc1cnc(N2CC3(CCOCC3)C2)c(C(=O)Nc2ccc(C(=O)N3CCc4cc(C(=O)Nc5c(F)cccc5C(F)(F)F)oc4-c4ccncc43)cc2)c1` [Example 126] was tested. Which EC50 did it give?
A: Its EC50 is over 50 nM.

Q: `Cc1cnc(N2CC3(CCOCC3)C2)c(C(=O)Nc2ccc(C(=O)N3CCc4cc(-c5nc6cccc(F)c6[nH]5)oc4-c4ccncc43)cc2)c1` [Example 127] was tested. Which EC50 did it give?
A: Its EC50 is over 50 nM.

Q: With `Cc1cnc(N2CC3(CCOCC3)C2)c(C(=O)Nc2ccc(C(=O)N3CCc4cc(C(=O)Nc5c(F)cccc5F)sc4-c4cc(C)sc43)cc2)c1` [Example 128] as the compound, how does the EC50 read?
A: The EC50 was 10 to 50 nM.

Q: Which EC50 does the source give for `Cc1cnc(N2CC3(CCOCC3)C2)c(C(=O)Nc2ccc(C(=O)N3CCc4cc(C(=O)Nc5c(F)cc(F)cc5F)sc4-c4cc(C)sc43)cc2)c1` [Example 129] here?
A: The EC50 was over 50 nM.

Q: How did the EC50 turn out when `Cc1cnc(N2CC3(CCOCC3)C2)c(C(=O)Nc2ccc(C(=O)N3CCc4cc(C(=O)Nc5c(Cl)cccc5Cl)sc4-c4cc(C)sc43)cc2)c1` [Example 130] was run?
A: Its EC50 is over 50 nM.

Q: Which EC50 does the source give for `Cc1cnc(N2CC3(CCOCC3)C2)c(C(=O)Nc2ccc(C(=O)N3CCc4cc(-c5nc6cccc(F)c6[nH]5)sc4-c4cc(C)sc43)cc2)c1` [Example 131] here?
A: Its EC50 is 10 to 50 nM.

Q: `Cc1cnc(N2CC3(CCOCC3)C2)c(C(=O)Nc2ccc(C(=O)N3CCc4cc(-c5nc6ccccc6[nH]5)sc4-c4cc(C)sc43)cc2)c1` [Example 132] was tested. Which EC50 did it give?
A: Its EC50 is 10 to 50 nM.

Q: `Cc1cnc(N2CC3(CCOCC3)C2)c(C(=O)Nc2ccc(C(=O)N3CCc4cc(C(=O)Nc5c(F)cccc5F)sc4-c4ncc(C)cc43)cc2)c1` [Example 133] was tested. Which EC50 did it give?
A: Its EC50 is under 10 nM.

Q: How did the EC50 turn out when `Cc1cnc(N2CC3(CCOCC3)C2)c(C(=O)Nc2ccc(C(=O)N3CCc4cc(C(=O)Nc5c(C)cccc5F)sc4-c4ncc(C)cc43)cc2)c1` [Example 134] was run?
A: The EC50 was under 10 nM.

Q: `Cc1cnc(N2CC3(CCOCC3)C2)c(C(=O)Nc2ccc(C(=O)N3CCc4cc(C(=O)Nc5c(F)cccc5Cl)sc4-c4ncc(C)cc43)cc2)c1` [Example 136] was tested. Which EC50 did it give?
A: The EC50 was under 10 nM.

Q: `Cc1cnc(N2CC3(CCOCC3)C2)c(C(=O)Nc2ccc(C(=O)N3CCc4cc(-c5nc6ccccc6[nH]5)sc4-c4ncc(C)cc43)cc2)c1` [Example 137] was tested. Which EC50 did it give?
A: The EC50 was under 10 nM.

Q: Which EC50 does the source give for `Cc1cnc(N2CC3(CCOCC3)C2)c(C(=O)Nc2ccc(C(=O)N3CCc4cc(C(=O)Nc5c(F)cccc5F)sc4-c4nc(C)ccc43)cc2)c1` [Example 138] here?
A: The EC50 was 10 to 50 nM.

Q: `Cc1cnc(N2CC3(CCOCC3)C2)c(C(=O)Nc2ccc(C(=O)N3CCc4cc(C(=O)Nc5c(C)cccc5F)sc4-c4nc(C)ccc43)cc2)c1` [Example 139] was tested. Which EC50 did it give?
A: Its EC50 is 10 to 50 nM.

Q: How did the EC50 turn out when `Cc1cnc(N2CC3(CCOCC3)C2)c(C(=O)Nc2ccc(C(=O)N3CCc4cc(C(=O)Nc5ncccc5F)sc4-c4nc(C)ccc43)cc2)c1` [Example 140] was run?
A: Its EC50 is 10 to 50 nM.

Q: For `Cc1cnc(N2CC3(CCOCC3)C2)c(C(=O)Nc2ccc(C(=O)N3CCc4cc(C(=O)Nc5c(C)cccc5C#N)sc4-c4nc(C)ccc43)cc2)c1` [Example 141], which EC50 is on record?
A: The EC50 was over 50 nM.

Q: `Cc1cnc(N2CC3(CCOCC3)C2)c(C(=O)Nc2ccc(C(=O)N3CCc4cc(C(=O)Nc5c(F)cccc5Cl)sc4-c4nc(C)ccc43)cc2)c1` [Example 142] was tested. Which EC50 did it give?
A: The EC50 was 10 to 50 nM.

Q: How did the EC50 turn out when `Cc1cnc(N2CC3(CCOCC3)C2)c(C(=O)Nc2ccc(C(=O)N3CCc4cc(C(=O)Nc5c(F)cccc5C(F)(F)F)sc4-c4nc(C)ccc43)cc2)c1` [Example 143] was run?
A: Its EC50 is over 50 nM.

Q: Which EC50 does the source give for `Cc1ccc2c(n1)-c1sc(C(=O)Nc3c(F)cccc3F)cc1CCN2C(=O)c1ccc(NC(=O)c2ccc(C)nc2N2CC3(CCOCC3)C2)cc1` [Example 144] here?
A: Its EC50 is 10 to 50 nM.

Q: `Cc1ccc2c(n1)-c1sc(C(=O)Nc3c(C)cccc3F)cc1CCN2C(=O)c1ccc(NC(=O)c2ccc(C)nc2N2CC3(CCOCC3)C2)cc1` [Example 145] was tested. Which EC50 did it give?
A: Its EC50 is over 50 nM.

Q: With `Cc1ccc2c(n1)-c1sc(C(=O)Nc3ncccc3F)cc1CCN2C(=O)c1ccc(NC(=O)c2ccc(C)nc2N2CC3(CCOCC3)C2)cc1` [Example 146] as the compound, how does the EC50 read?
A: The EC50 was 10 to 50 nM.

Q: `Cc1ccc2c(n1)-c1sc(C(=O)Nc3c(C)cccc3C#N)cc1CCN2C(=O)c1ccc(NC(=O)c2ccc(C)nc2N2CC3(CCOCC3)C2)cc1` [Example 147] was tested. Which EC50 did it give?
A: Its EC50 is over 50 nM.

Q: How did the EC50 turn out when `Cc1ccc2c(n1)-c1sc(C(=O)Nc3c(F)cccc3Cl)cc1CCN2C(=O)c1ccc(NC(=O)c2ccc(C)nc2N2CC3(CCOCC3)C2)cc1` [Example 148] was run?
A: The EC50 was over 50 nM.

Q: How did the EC50 turn out when `Cc1ccc2c(n1)-c1sc(C(=O)Nc3c(F)cccc3C(F)(F)F)cc1CCN2C(=O)c1ccc(NC(=O)c2ccc(C)nc2N2CC3(CCOCC3)C2)cc1` [Example 149] was run?
A: The EC50 was over 50 nM.

Q: How did the EC50 turn out when `Cc1cnc(N2CC3(CCOCC3)C2)c(C(=O)Nc2ccc(C(=O)N3CCc4cc(NC(=O)c5c(F)cccc5F)sc4-c4ncccc43)cc2)c1` [Example 151] was run?
A: The EC50 was under 10 nM.

Q: How did the EC50 turn out when `Cc1cnc(N2CC3(CCOCC3)C2)c(C(=O)Nc2ccc(C(=O)N3CCc4cc(NC(=O)c5c(C)cccc5F)sc4-c4ncccc43)cc2)c1` [Example 152] was run?
A: Its EC50 is under 10 nM.

Q: For `Cc1cnc(N2CC3(CCOCC3)C2)c(C(=O)Nc2ccc(C(=O)N3CCc4cc(NC(=O)c5c(F)cccc5Cl)sc4-c4ncccc43)cc2)c1` [Example 153], which EC50 is on record?
A: Its EC50 is under 10 nM.

Q: `Cc1cnc(N2CC3(CCOCC3)C2)c(C(=O)Nc2ccc(C(=O)N3CCc4cc(NC(=O)c5ncccc5F)sc4-c4ncccc43)cc2)c1` [Example 154] was tested. Which EC50 did it give?
A: The EC50 was under 10 nM.

Q: For `Cc1cnc(N2CC3(CCOCC3)C2)c(C(=O)Nc2ccc(C(=O)N3CCc4cc(NC(=O)c5ccccc5)sc4-c4ncccc43)cc2)c1` [Example 155], which EC50 is on record?
A: Its EC50 is under 10 nM.

Q: For `Cc1cnc(N2CC3(CCOCC3)C2)c(C(=O)Nc2ccc(C(=O)N3CCc4cc(NC(=O)c5ccccc5F)sc4-c4ncccc43)cc2)c1` [Example 156], which EC50 is on record?
A: The EC50 was under 10 nM.

Q: How did the EC50 turn out when `Cc1ccc(C(=O)Nc2ccc(C(=O)N3CCc4cc(NC(=O)c5c(F)cccc5F)sc4-c4ncccc43)cc2)c(N2CC3(CCOCC3)C2)n1` [Example 157] was run?
A: Its EC50 is under 10 nM.

Q: With `Cc1ccc(C(=O)Nc2ccc(C(=O)N3CCc4cc(NC(=O)c5c(C)cccc5F)sc4-c4ncccc43)cc2)c(N2CC3(CCOCC3)C2)n1` [Example 158] as the compound, how does the EC50 read?
A: The EC50 was 10 to 50 nM.

Q: With `Cc1ccc(C(=O)Nc2ccc(C(=O)N3CCc4cc(NC(=O)c5c(F)cccc5Cl)sc4-c4ncccc43)cc2)c(N2CC3(CCOCC3)C2)n1` [Example 159] as the compound, how does the EC50 read?
A: Its EC50 is 10 to 50 nM.

Q: `Cc1ccc(C(=O)Nc2ccc(C(=O)N3CCc4cc(NC(=O)c5ccccc5F)sc4-c4ncccc43)cc2)c(N2CC3(CCOCC3)C2)n1` [Example 160] was tested. Which EC50 did it give?
A: Its EC50 is under 10 nM.

Q: With `Cc1cnc2c(c1)N(C(=O)c1ccc(NC(=O)c3cccnc3N3CC4(CCOCC4)C3)cc1)CCc1cc(C(=O)Nc3c(C)cccc3F)sc1-2` [Example 161] as the compound, how does the EC50 read?
A: Its EC50 is under 10 nM.

Q: `Cc1cnc2c(c1)N(C(=O)c1ccc(NC(=O)c3cccnc3N3CC4(CCOCC4)C3)cc1)CCc1cc(C(=O)Nc3c(F)cccc3Cl)sc1-2` [Example 162] was tested. Which EC50 did it give?
A: Its EC50 is under 10 nM.

Q: How did the EC50 turn out when `Cc1cnc2c(c1)N(C(=O)c1ccc(NC(=O)c3cccnc3N3CC4(CCOCC4)C3)cc1)CCc1cc(C(=O)Nc3c(F)cccc3F)sc1-2` [Example 164] was run?
A: The EC50 was under 10 nM.

Same assay, conditions: human respiratory syncytial virus, HEp-2

Q: For `O=C(Nc1ccccc1F)N[C@H]1N=C(c2ccccc2)c2ccccc2NC1=O` [RSV-604, reference compound], which EC50 is on record?
A: The EC50 was about 2400 nM.
